Experimental data as given in US20220241276A1, “COMPOSITIONS AND METHODS FOR TREATING CANCER” (The Regents of the University of Michigan, priority 2019, published 2022).
Several values for one entry are separate records, joined by “and”; a condition that tells them apart may be missing. Equal entries are not always repeated. Where two headings read alike, the source gives them in different places.

Tests used:
[1] = system: advanced adrenocortical carcinoma (ACC); conditions: cited from earlier work
[2] = system: advanced adrenocortical carcinoma (ACC); test: Phase 3 study (GALACCTIC; Fassnacht et al. Lancet Oncology 2015) of OSI-906/linsitinib vs placebo in patients with advanced adrenocortical carcinoma; assay type: in vivo, human; conditions: prior trial, 6/90 patients, unselected
Description: In some embodiments, the agent is an IGF1R inhibitor.
This includes 4 patients who achieved a partial response (PR) by RECIST criteria (Eisenhauer et al. Eur J. Cancer. 2009), and 2 patients who achieved long-term stable disease (SD; also by RECIST criteria, Eisenhauer et al. Eur J. Cancer. 2009).

[3] = system: adrenocortical carcinoma (ACC); conditions: cited from earlier work
[4] = individual patients G-L, non-responders to OSI-906, per patient

| Compound | Patients with favorable response / treated patients ([1]; OSI-906-treated arm, unselected advanced ACC) | Kaplan-Meier progression-free survival curves, linsitinib-treated vs placebo-treated ([1]; all patients of the trial) | Progression-free survival (days) ([1]; individual patients A-F, responders to OSI-906, per patient, '+' given after value) | Best change from baseline in sum of target lesions (%) ([1]; individual patients A-F, responders to OSI-906, per patient) | Best change from baseline in sum of target lesions (%) [1, 4] | Progression-free survival [1, 4] | Number of patients who achieved a partial response (PR) ([1]; of 90 OSI-906-treated patients, RECIST) | Drug toxicities ([1]; patients with ACC) | Primary endpoint of the Phase 3 study ([1]; patients with ACC) | Progression-free survival of long-term durable responders ([1]; small subset of linsitinib-treated patients, not seen with placebo) | Response rate [2] | Patients who recur during adjuvant therapy after surgery or progress during therapy for non-resectable disease ([3]; mitotane therapy) | Efficacy ([3]; recent studies) | Toxicity ([3]; recent studies) |
| --- | --- | --- | --- | --- | --- | --- | --- | --- | --- | --- | --- | --- | --- | --- |
| C[C@]1(O)C[C@@H](c2nc(-c3ccc4ccc(-c5ccccc5)nc4c3)c3c(N)nccn32)C1 [OSI-906, linsitinib] | 6/90 | no statistical difference | 169+ days and 504+ days and 525+ days and 205+ days and 433+ days and 440+ days | −50% and −45.625% and −45% and −5.882% and 0% and −78.46% | 32.26% and 35.29% and 38.28% and 48.35% and 23.51% | 38 days and 41 days and 42 days (3×) and 48 days | 4 patients | limited and manageable | failed to reach the primary endpoint | > 150 days | 6.7% |  |  |  |
| Clc1ccc(C(c2ccccc2Cl)C(Cl)Cl)cc1 (centres unmarked) [mitotane] |  |  |  |  |  |  |  |  |  |  |  | up to 90% | only marginally effective | highly toxic |
